Test results published in patent US9447056B2, “Solid forms of epalrestat” (Bionevia Pharmaceuticals, Inc., priority 2008, dated 2016).

Assay: Solid-form stability on compression into a disk (XRPD)
Type: physicochemical
Details: compressed into a disk at 3400 pounds of pressure (117 MPa) for 1 minute, Carver hydraulic press and pellet die
From the text: In various embodiments, the novel betaine cocrystal of epalrestat described herein is stable.

## betaine hydrogen diepalrestat [betaine hydrogen diacid cocrystal]
  change in XRPD pattern after compression: no change in the XRPD pattern
